According to patent US12485191B2, “Radiopharmaceuticals and methods of use thereof” (BOARD OF REGENTS OF THE UNIVERSITY OF NEBRASKA, priority 2017, dated 2025):
Marks after values point to notes of the source that are not given here.

Key:
[1] = Distribution coefficient (Log D7.4) of the conjugates; type: physicochemical
Method: Distribution Coefficient (Log D7.4) of the Conjugates The distribution coefficient was determined for each ^177Lu-labeled conjugate. In a 1.5 mL centrifuge tube, 0.5 mL of 1-octanol was added to 0.5 mL of PBS (pH 7.4) containing the radiolabeled peptide (500,000 cpm). The solution was vigorously vortexed for 2 minutes at room temperature and subsequently centrifuged to yield two immiscible layers. The radioactivity of the aliquots (100 μL) taken from each layer were quantified by the gamma counter and the Log D7.4 for each conjugates was calculated.

[2] = biological target: T1, NTSR1 (Homo sapiens, UniProt P30989); test: In vitro competitive neurotensin receptor binding in HT-29 cells vs 177Lu-N1; details: unlabeled conjugates
T1 construct: endogenous in cells; host or cells: HT-29 human colon cancer cells (ATCC)
T1 sequence (P30989 whole entry): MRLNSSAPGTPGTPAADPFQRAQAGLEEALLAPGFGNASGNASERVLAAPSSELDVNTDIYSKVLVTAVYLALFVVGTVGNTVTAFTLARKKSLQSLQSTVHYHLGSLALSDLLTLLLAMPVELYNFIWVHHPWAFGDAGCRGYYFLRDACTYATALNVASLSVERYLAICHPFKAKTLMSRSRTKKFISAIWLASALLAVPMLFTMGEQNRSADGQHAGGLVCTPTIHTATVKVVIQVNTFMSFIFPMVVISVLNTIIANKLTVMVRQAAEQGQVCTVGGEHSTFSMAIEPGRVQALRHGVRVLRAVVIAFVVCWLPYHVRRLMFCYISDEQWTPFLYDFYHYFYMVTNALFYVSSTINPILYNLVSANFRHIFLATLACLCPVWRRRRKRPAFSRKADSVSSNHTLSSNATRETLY
Method: In Vitro Competitive Neurotensin Receptor Binding Studies
The IC50 for the unlabeled conjugates binding to the neurotensin receptors was determined using the HT-29 human colon cancer cell line. […]. Med. Biol., 42:816), served as the competitive radioligand for comparing the relative binding affinities of the conjugates. HT-29 cells (˜1×10^6) suspended in 100 μL of McCoy's 5A medium (pH 7.4, 4.8 mg/mL HEPES, and 2 mg/mL BSA) were incubated with 177Lu-N1 (100,000 cpm, 100 μL) at 37° C. for 45 minutes in the presence of the conjugates with predetermined concentrations (0.5 nM-1 μM) in 100 μL of medium. At the end of the incubation, the cells were centrifuged, aspirated, and washed with fresh medium (5×500 μL). The cell-associated radioactivity was measured using gamma counter and the IC50 values determined by nonlinear regression using GraphPad Prism 5. All measurements were in biological triplicate.

[3] = biological target: T2, cathepsin B (human Liver) (Homo sapiens, UniProt P07858); test: Inhibition constant (Ki) of the compounds to cathepsin B; type: biochemical; details: read-out: CatB K1
T2 construct: from tissue; host or cells: human liver
Method: Determination of the Km and Vmax of Cathepsin B for Z-Arg-Arg-AMC
The solution of cathepsin B (human Liver) (50 μL, 2 nM) in assay buffer used above was mixed with 50 μL of solution of substrate Z-Arg-Arg-AMC in the assay buffer at different concentrations ([S]) (25 μM, 50 μM, 100 μM, 500 μM and 1 mM). The mixture was incubated at 37° C. and the fluorescence of the liberated aminomethylcoumarin at 460 nM using 355 nm excitation was measured at predetermined time points (0, 2, 4, 6, 8, and 10 minutes). The fluorescence intensity was plotted versus time and the reaction rates (v0) were calculated as the slope of the trend lines obtained by liner regression. Km and maximum reaction rate (Vmax-obs) was determined from the equation v0=Vmax[S]/(Km+[S]) and solved by nonlinear regression using GraphPad Prism 5. All measurements were in biological triplicate.
Determination of the Inhibition Constant (Ki) of the Compounds to Cathepsin B
The cathepsin B (human Liver) in assay buffer (25 μL) was mixed with the conjugate (25 μL) in 96-well plate. After the solution was mixed, the Z-Arg-Arg-AMC in assay buffer (50 μL) was added to the well, yielding a final cathepsin B concentration of 1 nM, conjugate concentration ([C]) of 15 nM or 5 μM, and substrate concentration ([S]) of 25 μM, 50 μM, 100 μM, 500 μM and 1 mM. The mixture was incubated at 37° C. and the fluorescence of the liberated aminomethylcoumarin at 460 nM using 355 nm excitation was measured at predetermined time points (0, 2, 4, 6, 8, and 10 minutes). The fluorescence intensity was plotted versus time with observed reaction rates (v0-obs) calculated as the slope of the trend lines obtained by liner regression. The observed rate constant (Kobs) and observed maximum reaction rate (Vmax-obs) was determined from the equation v0-obs=Vmax-obs [S]/(Kobs+[S]) and solved by nonlinear regression using GraphPad Prism 5. The Ki was calculated from the equation Kobs=Km (1+[C]/Ki). All measurements were in biological triplicate.

[4] = test system: HT-29 xenograft tumors; test: Biodistribution study in HT-29 xenograft mouse model; type: in vivo, mice
Method: Female SCID mice (5 weeks of age) received subcutaneous injections of HT-29 cells (5×10^6) suspended in Matrigel® into the flanks. When the tumor size reached 80 mm^3 (two weeks after injection), the mice were randomized into three groups and intravenously injected with 10 μCi (0.37 MBq) of the purified ^177Lu labeled conjugates via tail vein. The mice were sacrificed and the tissues were excised at 4, 24, and 72 hours post-injection time points. The blood, tumor, and excised tissues were weighed. The radioactivity for each sample was measured using a gamma counter. The percentage injected dose per gram (% ID/g) and the radioactivity ratios between tumor and non-targeted tissues were calculated.

[5] = test system: PC-3 tumor; details: mouse, in vivo
[6] = biological target: CatB (Homo sapiens, UniProt P07858); test: CatB inhibition of GRPR-targeted agents; type: biochemical
Method: The Inhibition of Cathepsin B Activity by the Conjugates The phosphate buffer (0.1 M, pH=5.8) containing EDTA (1 mM), DTT (2.7 mM), and Brij®35 (0.03%) was prepared before the assay. […] The solution of cathepsin B (human Liver) in assay buffer (50 μL, 0.544 nM) was added to the mixture which was further incubated at 37° C. for 20 minutes. The fluorescence of the liberated aminomethylcoumarin at 460 nM using 355 nm excitation was measured and the IC50 of the cathepsin B inhibition versus the samples without the inhibitor was determined by nonlinear regression using GraphPad Prism 5.

[7] = determined by radiometric analysis, 177Lu-labeled conjugate

Row | SMILES | IC50 [2] [nM] | Ki [3] [nM] | logD7.4 [1, 7] | also measured
1 | Cc1cc(C)c(C(=O)OCC(=O)[C@H](CCCCNC(=O)Cn2cc(C[C@H](NC(=O)CN3CCN(CC(=O)O)CCN(CC(=O)O)CCN(CC(=O)O)CC3)C(=O)NCCC(=O)N[C@@H](CCCCN)C(=O)N3CCC[C@H]3C(=O)N(C)[C@@H](CCCNC(=N)N)C(=O)N[C@@H](CCCNC(=N)N)C(=O)N3CCC[C@H]3C(=O)N[C@@H](Cc3c(C)cc(O)cc3C)C(=O)N[C@H](C(=O)N[C@@H](CC(C)C)C(=O)O)C(C)(C)C)nn2)NC(=O)[C@H](Cc2ccccc2)NC(=O)OCc2ccccc2)c(C)c1 [Compound 2b] | 22 ± 2 | 26 ± 5 | −1.49 ± 0.02^b | 
2 | Cc1cc(C)c(C(=O)OCC(=O)[C@H](CCCCn2cc(C[C@H](NC(=O)CN3CCN(CC(=O)O)CCN(CC(=O)O)CCN(CC(=O)O)CC3)C(=O)NCCC(=O)N[C@@H](CCCCN)C(=O)N3CCC[C@H]3C(=O)N(C)[C@@H](CCCNC(=N)N)C(=O)N[C@@H](CCCNC(=N)N)C(=O)N3CCC[C@H]3C(=O)N[C@@H](Cc3c(C)cc(O)cc3C)C(=O)N[C@H](C(=O)N[C@@H](CC(C)C)C(=O)O)C(C)(C)C)nn2)NC(=O)[C@H](Cc2ccccc2)NC(=O)OCc2ccccc2)c(C)c1 [Compound 2a] | 20 ± 2 | 25 ± 4 | −1.46 ± 0.02^b | 
3 | Cc1cc(C)c(C(=O)OCC(=O)[C@H](CCCCNC(=O)CNC(=O)[C@@H](CO)NC(=O)[C@@H](CO)NC(=O)[C@@H](CO)NC(=O)Cn2cc(C[C@H](NC(=O)CN3CCN(CC(=O)O)CCN(CC(=O)O)CCN(CC(=O)O)CC3)C(=O)NCCC(=O)N[C@@H](CCCCN)C(=O)N3CCC[C@H]3C(=O)N(C)[C@@H](CCCNC(=N)N)C(=O)N[C@@H](CCCNC(=N)N)C(=O)N3CCC[C@H]3C(=O)N[C@@H](Cc3c(C)cc(O)cc3C)C(=O)N[C@H](C(=O)N[C@@H](CC(C)C)C(=O)O)C(C)(C)C)nn2)NC(=O)[C@H](Cc2ccccc2)NC(=O)OCc2ccccc2)c(C)c1 [Compound 2d] | 20 ± 3 | 73 ± 8 | −1.79 ± 0.06^b | 
4 | Cc1cc(C)c(C(=O)OCC(=O)[C@H](CCCCNC(=O)CNC(=O)[C@@H](CO)NC(=O)[C@@H](CO)NC(=O)[C@@H](CO)NC(=O)Cn2cc(C[C@H](NC(=O)CN3CCN(CC(=O)O)CCN(CC(=O)O)CCN(CC(=O)O)CC3)C(=O)N[C@H](CO)C(=O)N[C@H](CO)C(=O)N[C@H](CO)C(=O)N[C@@H](CCCCN)C(=O)N3CCC[C@H]3C(=O)N(C)[C@@H](CCCNC(=N)N)C(=O)N[C@@H](CCCNC(=N)N)C(=O)N3CCC[C@H]3C(=O)N[C@@H](Cc3c(C)cc(O)cc3C)C(=O)N[C@H](C(=O)N[C@@H](CC(C)C)C(=O)O)C(C)(C)C)nn2)NC(=O)[C@H](Cc2ccccc2)NC(=O)OCc2ccccc2)c(C)c1 (177Lu complex, metal not drawn) [Compound 2f] |  |  |  | retention in liver and kidney compared to 3b (in words) ([4]; HT-29 xenograft mice): significantly increased retention; increase in retention in the tumors compared to control 3b ([4]; HT-29 xenograft, after 24 hours): nearly two-fold increase; increase in tumor uptake ([4]; HT-29 xenograft, by 24 hours): 25%
5 | CC(C)C[C@H](NC(=O)CCC(=O)O)C(=O)N[C@@H](CCCNC(=N)N)C(=O)NCCn1cc(C[C@H](NC(=O)CN2CCN(CC(=O)O)CCN(CC(=O)O)CCN(CC(=O)O)CC2)C(=O)NCCOCCOCCOCCOCCC(=O)N[C@H](Cc2ccccc2)C(=O)N[C@@H](CCC(N)=O)C(=O)N[C@@H](Cc2c[nH]c3ccccc23)C(=O)N[C@@H](C)C(=O)N[C@H](C(=O)NCC(=O)N[C@@H](Cc2c[nH]cn2)C(=O)N[C@@H](CC(C)C)[C@@H](O)CC(=O)N[C@H](CC(C)C)C(N)=O)C(C)C)nn1 [^177Lu-C-ANT, metal not drawn] |  |  |  | tumor retention [5]: 15%; logD7.4 ([1]; GRPR-targeted agents): −1.9 ± 0.1; inhibition of catB (in words) [6]: no inhibition
6 | Cc1cc(C)c(C(=O)OCC(=O)[C@H](CCCCNC(=O)CNC(=O)[C@@H](CO)NC(=O)[C@@H](CO)NC(=O)[C@@H](CO)NC(=O)Cn2cc(C[C@H](NC(=O)CN3CCN(CC(=O)O)CCN(CC(=O)O)CCN(CC(=O)O)CC3)C(=O)N[C@H](CO)C(=O)N[C@H](CO)C(=O)N[C@H](CO)C(=O)N[C@@H](CCCCN)C(=O)N3CCC[C@H]3C(=O)N(C)[C@@H](CCCNC(=N)N)C(=O)N[C@@H](CCCNC(=N)N)C(=O)N3CCC[C@H]3C(=O)N[C@@H](Cc3c(C)cc(O)cc3C)C(=O)N[C@H](C(=O)N[C@@H](CC(C)C)C(=O)O)C(C)(C)C)nn2)NC(=O)[C@H](Cc2ccccc2)NC(=O)OCc2ccccc2)c(C)c1 [Compound 2f] | 18 ± 2 | 50 ± 13 |  | 
